Data published in US6530985B1, “Water-based magenta ink composition and method of ink-jet recording” (Nippon Kayaku Kabushiki Kaisha, priority 1998, dated 2003).
In brackets after ≈: the same amount, converted by molar mass.

Experiment: Solubility of the dye in water
Type: physicochemical
Source text: Further, the dye component used in the Example, which has a solubility in water of 100 g/L, is excellent for ink-jet recording and can produce a high concentration of ink composition.

- solubility in pure water (ion exchanged water) (25° C., listed as the dye component used in the Example): 100 mg/mL (≈ 131 mM)
- solubility (pure water (ion exchanged water), 25 °C, water): ~100 mg/mL (≈ 131 mM)
Structure (SMILES): CCC(C)(C)c1ccc(Oc2cc(Nc3ccc(S(=O)(=O)O)cc3)c3c4c(c(C(=O)c5ccccc5)c(=O)[nH]c24)-c2ccccc2C3=O)c(S(=O)(=O)O)c1
